From publication PMC7076174 (Frontiers in Oncology, 2020)

What was measured:
GSKβ = system: GSKβ; parameters: method as in PMID 23305709; settings: cited from earlier work
GSK3α = system: GSK3α; parameters: method as in PMID 23305709; settings: cited from earlier work
GSK3 [1] = settings: six patients with evaluable samples; CD34+ and/or CD117+ cells
Procedure: Blood samples were collected at baseline, days 1, 8, and 30 and at the end of the study period. Specimens were processed only if ≥5% leukemic cells were present in the blood as assessed using morphologic criteria. […] Bone marrow was collected at baseline and end of study. Immunophenotyping was performed by multi-parameter flow cytometry using fluorochrome-labeled antibodies to CD11b, CD14, and CD15 as markers for monocytic and/or granulocytic differentiation ([19]–[22]). The stained samples were run on a BD Biosciences LSRII (San Jose, CA, USA) flow cytometer. Cells were concurrently stained for CD34, CD117, and CD38 for identification of the leukemic blast and stem cell populations (CD34+ CD38–). […] Phosphorylated Serine-9 GSK3β antibody was obtained from Cell Signaling Technologies (Beverly, MA, USA).

GSK3 [2] = settings: cited from earlier work
[3] = Method: Lithium carbonate (lithium) 300 mg was administered orally three times a day (or two times daily for patients age ≥65 years) starting on day - 3 prior to cycle 1 and on day 1 of all subsequent cycles consisting of 28 days (Figure 1). The “lead-in” period prior to cycle 1 was designed to allow for correlative studies to investigate the effects of lithium on leukemic cell GSK3 activity and to ensure achievement of adequate serum lithium concentrations prior to tretinoin exposure. The target serum lithium concentration was the laboratory-defined therapeutic range of 0.6–1.0 mmol/L based on toxicity in humans for treatment of mood disorders. Dose adjustments were made based on the serum lithium concentration (Supplementary Figure 1). Dosing of tretinoin followed a “3+3” study design with three patients sequentially enrolled at each dose level ([13]). Tretinoin was administered orally at a dose of 22.5 mg/m^2/day (dose level 1) or 45 mg/m^2/day (dose level 2) in two divided doses, from days 1 to 7 and from days 15 to 21 of a 28-day cycle.
[4] = system: CD34+ CD38– AML stem cell population; settings: tretinoin 0.5 μM, 6 days; in three samples
Source text: In order to study the separate effects of GSK3 inhibition or tretinoin on AML stem cells, we used previously obtained cryopreserved blood samples from the Eastern Cooperative Oncology Group (ECOG) tumor repository of newly diagnosed and untreated AML patients (independent of this trial) to conduct in vitro studies. […] Cryopreserved cells were thawed and cultured in RPMI 1640 media (Hyclone) containing 10% fetal bovine serum (Sigma-Aldrich, St. Louis, MO, USA) and 1% final concentration penicillin and streptomycin. Amphotericin B (0.5 μg/ml) and ciprofloxacin (10 μg/ml) were added to help eliminate fungal and mycoplasma contamination in the cell culture. Cells were treated with SB415285 (10 μM) obtained from Tocris (Bristol, UK), a laboratory-grade GSK3 inhibitor which competitively binds to the ATP binding site of GSK3 ([23]), and tretinoin (0.5 μM). […] After 6 days, immunophenotyping for the CD34+ CD38– AML stem cell population was performed by flow cytometry.

O=C1NC(=O)C(c2cnc3ccccn23)=C1c1cn2c3c(cc(F)cc13)CN(C(=O)N1CCCCC1)CC2 [LY2090314]
IC50 (GSKβ): 0.9 nM
IC50 (GSK3α): 1.5 nM

O=C([O-])[O-].[Li+].[Li+] [lithium, Lithium carbonate]
Median increase in pGSK3β, change in mean fluorescence intensity (MFI) from baseline (GSK3 [1]): 1,093 (range, 111–1,738)
Lithium threshold concentration necessary in vivo to significantly inhibit GSK3 (GSK3 [2]): ~ 0.8 mmol/L
Target serum lithium concentration (0.6–1.0 mmol/L) achieved ([3]; oral lithium carbonate 300 mg 2–3 times daily, dose adjusted): achieved at least once in all nine patients
Serum lithium concentration at admission ([3]; patient with delirium (DLT), third week of treatment, dose level 1): 0.28 mmol/L

CC1=C(/C=C/C(C)=C/C=C/C(C)=C/C(=O)O)C(C)(C)CCC1 [tretinoin]
Reduction of the CD34+ CD38– population, tretinoin alone vs combination with SB415285 [4]: comparable reduction of the CD34+ CD38– population
